Here are results for 4 molecules from patent publication EP3929178B1, “CRYSTAL FORM OF VALNEMULIN HYDROCHLORIDE HYDRATE, PREPARATION METHOD THEREFOR, AND PHARMACEUTICAL COMPOSITION CONTAINING CRYSTAL FORM” (Hubei Longxiang Pharmaceutical Co., Ltd., priority 2019, dated 2020).

Counter-ions that a name gives are not always drawn. Like-named read-outs stand apart in the source and are kept apart here.

A short description of series [1]: Influencing factor (stability) experiments on crystal forms under temperature and humidity. It counts as physicochemical. Particulars: for content before placement: before placement (baseline of the stability study). As to the method: Conditions for purity detection by High Performance Liquid Chromatography (HPLC): octadecylsilane-bonded silica gel was used as filler (150 mm×4.6 mm, 3 µm); mobile phase A was phosphate buffer (pH 2.5); mobile phase B was phosphate buffer (pH 2.5)-acetonitrile (25:75); the flow rate was 1.5 ml per minute; the column temperature was 50 °C; and the detection wavelength was 200 nm. Linear gradient elution was performed according to the following table.
Table 1 Comparative study on stability of valnemulin hydrochloride hydrate, amorphous substance and the comparative crystal form

A short description of series [2]: Hygroscopicity experiments. The series is classed as physicochemical. An excerpt:
Table 1 Comparative study on stability of valnemulin hydrochloride hydrate, amorphous substance and the comparative crystal form The hydrate crystal and the amorphous substance and the crystal form of patent CN104876841B were compared in terms of bulk density, solubility, ect, as shown in the following table. Table 2 Physicochemical properties comparison of the valnemulin hydrochloride hydrate, the amorphous substance and the Comparative Example

The nature of series [3]: Bulk density comparison. It counts as physicochemical. An excerpt:
The hydrate crystal and the amorphous substance and the crystal form of patent CN104876841B were compared in terms of bulk density, solubility, ect, as shown in the following table. Table 2 Physicochemical properties comparison of the valnemulin hydrochloride hydrate, the amorphous substance and the Comparative Example

Series [4] is described as follows: Loss on granulation of aqueous solutions of amorphous product. The series is classed as physicochemical. Particulars: granulated at 75 °C. From the text:
For solid drugs, different solid forms will have an important impact on physical and chemical properties such as stability, solubility, dissolution rate, bulk density and fluidity, resulting in different efficacy and bioavailability during use. Therefore, for solid pharmaceutical products, the development of different solid forms is more conducive to choosing a suitable crystal form according to the characteristics of the pharmaceutical preparation. For valnemulin hydrochloride products, compared with crystalline products, the amorphous products have problems such as poor stability, easy hygroscopicity, poor appearance, poor fluidity, and difficult storage. At the same time, aqueous solutions of amorphous valnemulin hydrochloride products are unstable during preparation process. Experiments have shown that 11.6% loss is caused when granulated at 75 °C. Therefore, there is an urgent need to develop a stable valnemulin hydrochloride crystal product to meet market demand for veterinary drugs. […] There are very few reports on the crystal form of valnemulin hydrochloride and preparation method thereof.

The conditions of series [5]: reported for CN108892629A; cited from earlier work.
Where [6] appears, read: 25 °C, 90% relative humidity, placed for 30 days, listed as The crystal form of valnemulin hydrochloride hydrate (Example 1), hydrochloride hydrate.
The mark [7] stands for this setting: 40 °C, 75% relative humidity, placed for 30 days.
Setting [8] is: 40 °C, 75% relative humidity, placed for 30 days, listed as The crystal form of valnemulin hydrochloride hydrate (Example 1), hydrochloride hydrate.
The mark [9] stands for this setting: 60 °C, 75% relative humidity, placed for 30 days.
The mark [10] stands for this setting: 60 °C, 75% relative humidity, placed for 30 days, listed as The crystal form of valnemulin hydrochloride hydrate (Example 1), hydrochloride hydrate.
Where [11] appears, read: 60 °C, placed in normal humidity for 30 days, listed as The crystal form of valnemulin hydrochloride hydrate (Example 1), hydrochloride hydrate.
[12] abbreviates: compared with the original amorphous product.
[13] abbreviates: 25 °C, 90% relative humidity, placed for 30 days, hydrochloride.
[14] abbreviates: 40 °C, 75% relative humidity, placed for 30 days, hydrochloride.
Setting [15] is: 60 °C, 75% relative humidity, placed for 30 days, hydrochloride.
The mark [16] stands for this setting: 60 °C, placed in normal humidity for 30 days, hydrochloride.

Turning to `C=C[C@]1(C)C[C@@H](OC(=O)CSC(C)(C)CNC(=O)[C@H](N)C(C)C)[C@]2(C)[C@H](C)CC[C@]3(CCC(=O)[C@H]32)[C@@H](C)[C@@H]1O` [Example 1, valnemulin hydrochloride hydrate], the Appearance change result in series [1] (setting [6]), in series [1] (setting [8]), in series [1] (setting [10]) and in series [1] (setting [11]) was “White solid” each time. For the same molecule, the “Content after placement (%)” value was 99.23% in series [1] (setting [6]), 99.20% in series [1] (setting [8]), 98.78% in series [1] (setting [10]) and 98.47% in series [1] (setting [11]). Further, the Crystal form change entry in series [1] (setting [6]) is reported as “No change”; in series [1] (setting [7]), “No change”; in series [1] (setting [9]) it was “No change”; in series [1] (setting [11]) it was “No”. For the same molecule, the content before placement in series [1] (hydrochloride hydrate) is recorded as 99.25%. Besides, the stability result in series [1] (setting [12]) is listed as “enhanced stability”; in series [1] (summary in words of Table 1) it was “stable”. Also, the “With or without hygroscopicity” value in series [2] (setting [6]) is “Without hygroscopic ity”; in series [2] (setting [8]), “Without hygroscopic ity”; in series [2] (setting [10]), “Without hygroscopic ity”; in series [2] (setting [11]), “Without”. For the same molecule, the hygroscopicity is reported as 0% in series [2] (Table 2, listed as The crystal form of valnemulin hydrochloride hydrate (Example 1), hydrochloride hydrate) and “no hygroscopicity” in series [2] (setting [12]). In addition, the Bulk density entry in series [3] (setting [12]) was “large bulk density”; in series [3] (listed as The crystal form of valnemulin hydrochloride hydrate (Example 1), hydrochloride hydrate), 0.596 g/mL.

`C=C[C@]1(C)C[C@@H](OC(=O)CSC(C)(C)CNC(=O)[C@H](N)C(C)C)[C@]2(C)[C@H](C)CC[C@]3(CCC(=O)[C@H]32)[C@@H](C)[C@@H]1O` [The crystal form of Comparative Example, valnemulin hydrochloride]: the Appearance change result in series [1] (setting [13]) is on record as “White solid”; in series [1] (setting [14]) it was “White solid”; in series [1] (setting [15]), “Light yellow solid”; in series [1] (setting [16]), “Light yellow solid”. The “Content after placement (%)” value is listed as 99.21% in series [1] (setting [13]), 99.18% in series [1] (setting [14]), 98.69% in series [1] (setting [15]) and 98.39% in series [1] (setting [16]). In addition, the Crystal form change entry is on record as “Slight change” in series [1] (setting [13]), “No change” in series [1] (setting [7]), “No change” in series [1] (setting [9]) and “No change” in series [1] (setting [16]). Also, the “With or without hygroscopicity” value in series [2] (setting [13]), in series [2] (setting [14]), in series [2] (setting [15]) and in series [2] (setting [16]) was “Slightly” each time. Besides, the hygroscopicity was 1.015% in series [2] (Table 2, hydrochloride) and “slightly hygroscopic” in series [2] (summary in words of Table 1, listed as The crystal form of patent CN104876841B, hydrochloride). For the same molecule, the Bulk density in series [3] (hydrochloride) amounted to 0.636 g/mL.

With `C=C[C@]1(C)C[C@@H](OC(=O)CSC(C)(C)CNC(=O)[C@H](N)C(C)C)[C@]2(C)[C@H](C)CC[C@]3(CCC(=O)[C@H]32)[C@@H](C)[C@@H]1O` [The amorphous substance of valnemulin hydrochloride], the Appearance change entry in series [1] (setting [13]) is given as “Yellow transparent viscous solid”; in series [1] (setting [14]), “Yellow transparent viscous solid”; in series [1] (setting [15]), “Yellow”; in series [1] (setting [16]), “Yellow solid”. Besides, the “Content after placement (%)” value is 94.56% in series [1] (setting [13]), 90.82% in series [1] (setting [14]), 86.12% in series [1] (setting [15]) and 89.18% in series [1] (setting [16]). The molecule also gave a content before placement in series [1] (listed as valnemulin hydrochloride amorphous substance, hydrochloride) of 97.50%. The “With or without hygroscopicity” value in series [2] (setting [13]) was “Severe hygroscopic ity”; in series [2] (setting [14]), “Severe hygroscopic ity”; in series [2] (setting [15]), “Severe hygroscopic ity”; in series [2] (setting [16]), “Hygroscopi city”. The hygroscopicity in series [2] (Table 2, hydrochloride) was 8.86%; in series [2] (summary in words of Table 1, hydrochloride) it was “absorbed moisture severely”. Further, in series [3] (hydrochloride), the Bulk density is 0.338 g/mL. For the same molecule, in series [4], the loss when granulated turned out to be 11.6%.

In the case of `C=C[C@]1(C)C[C@@H](OC(=O)CSC(C)(C)CNC(=O)[C@H](N)C(C)C)[C@]2(C)[C@H](C)CC[C@]3(CCC(=O)[C@H]32)[C@@H](C)[C@@H]1O` [solvent-free compound, valnemulin hydrochloride], the Bulk density in series [5] is 0.305 g/mL.
